Earlier results on 1 molecule are cited in patent US20090285878A1, “Compositions and methods for stabilizing liposomal drug formulations” (Tekmira Pharmaceuticals Corporation, priority 2004, published 2009).

On to `CC[C@@]1(O)C(=O)OCc2c1cc1n(c2=O)Cc2cc3c(CN(C)C)c(O)ccc3nc2-1` [Topotecan], for which the Lactone hydrolyzed result (above pH 9) is reported as “more than 95%”. Besides, the “Open (carboxylate) form of lactone ring” value (below pH 4) was “no open form is present”.
